In ChEMBL document CHEMBL1156230, “Identification of phenylsulfone-substituted quinoxaline (WYE-672) as a tissue selective liver X-receptor (LXR) agonist” (J Med Chem, 2010):
Active and inactive are the calls of the source. The rule behind the calls is not given here.

Experiments:
Mus musculus [1] = assay: Antiatherosclerotic activity against high fat/high cholesterol fed LDLR-deficient mouse assessed as pltp gene regulation at 0.6 mg/kg administered with diet for 7 days by Experion chip analysis; type: functional, organism-based; set-up: dose 0.6 mg/kg
Mus musculus [2] = assay: Antiatherosclerotic activity against high fat/high cholesterol fed LDLR-deficient mouse duodenum assessed as induction of ABCG5 expression at 0.6 mg/kg administered with diet for 8 weeks; type: functional, organism-based; set-up: dose 0.6 mg/kg
Mus musculus [3] = assay: Antiatherosclerotic activity against high fat/high cholesterol fed LDLR-deficient mouse assessed as scd1 gene regulation at 10 mg/kg administered with diet for 7 days by Experion chip analysis; type: functional, organism-based; set-up: dose 10 mg/kg
Mus musculus [4] = assay: Antiatherosclerotic activity against high fat/high cholesterol fed LDLR-deficient mouse assessed as Irp1 gene regulation at 10 mg/kg administered with diet for 7 days by Experion chip analysis; type: functional, organism-based; set-up: dose 10 mg/kg
Mus musculus [5] = assay: Antiatherosclerotic activity against high fat/high cholesterol fed LDLR-deficient mouse assessed as IPl gene regulation at 0.6 mg/kg administered with diet for 7 days by Experion chip analysis; type: functional, organism-based; set-up: dose 0.6 mg/kg
Mus musculus [6] = assay: Antiatherosclerotic activity against high fat/high cholesterol fed LDLR-deficient mouse assessed as Lipc gene regulation at 10 mg/kg administered with diet for 7 days by Experion chip analysis; type: functional, organism-based; set-up: dose 10 mg/kg
Mus musculus [7] = assay: Antiatherosclerotic activity against high fat/high cholesterol fed LDLR-deficient mouse assessed as cyp7a1 gene regulation at 0.6 mg/kg administered with diet for 7 days by Experion chip analysis; type: functional, organism-based; set-up: dose 0.6 mg/kg
Mus musculus [8] = assay: Antiatherosclerotic activity against high fat/high cholesterol fed LDLR-deficient mouse assessed as Irp1 gene regulation at 3 mg/kg administered with diet for 7 days by Experion chip analysis; type: functional, organism-based; set-up: dose 3 mg/kg
Mus musculus [9] = assay: Antiatherosclerotic activity against high fat/high cholesterol fed LDLR-deficient mouse assessed as Fasn gene regulation at 0.6 mg/kg administered with diet for 7 days by Experion chip analysis; type: functional, organism-based; set-up: dose 0.6 mg/kg
Mus musculus [10] = assay: Antiatherosclerotic activity against high fat/high cholesterol fed LDLR-deficient mouse assessed as scab1 gene regulation at 0.6 mg/kg administered with diet for 7 days by Experion chip analysis; type: functional, organism-based; set-up: dose 0.6 mg/kg
Mus musculus [11] = assay: Antiatherosclerotic activity against high fat/high cholesterol fed LDLR-deficient mouse duodenum assessed as induction of SREBP-1c expression at 0.6 mg/kg administered with diet for 8 weeks; type: functional, organism-based; set-up: dose 0.6 mg/kg
Mus musculus [12] = assay: Antiatherosclerotic activity against high fat/high cholesterol fed LDLR-deficient mouse assessed as adfp gene regulation at 3 mg/kg administered with diet for 7 days by Experion chip analysis; type: functional, organism-based; set-up: dose 3 mg/kg
Mus musculus [13] = assay: Antiatherosclerotic activity against high fat/high cholesterol fed LDLR-deficient mouse assessed as lipg gene regulation at 0.6 mg/kg administered with diet for 7 days by Experion chip analysis; type: functional, organism-based; set-up: dose 0.6 mg/kg
Mus musculus [14] = species on record: Mus musculus; assay: Antiatherosclerotic activity against high fat/high cholesterol fed LDLR-deficient mouse assessed as reduction in plasma triglyceride level; type: functional, organism-based
Mus musculus [15] = assay: Antiatherosclerotic activity against high fat/high cholesterol fed LDLR-deficient mouse assessed as srebf1 gene regulation at 0.6 mg/kg administered with diet for 7 days by Experion chip analysis; type: functional, organism-based; set-up: dose 0.6 mg/kg
Mus musculus [16] = assay: Antiatherosclerotic activity against high fat/high cholesterol fed LDLR-deficient mouse assessed as pcsk9 gene regulation at 0.6 mg/kg administered with diet for 7 days by Experion chip analysis; type: functional, organism-based; set-up: dose 0.6 mg/kg
Mus musculus [17] = assay: Antiatherosclerotic activity against high fat/high cholesterol fed LDLR-deficient mouse assessed as abcg1 gene regulation at 10 mg/kg administered with diet for 7 days by Experion chip analysis; type: functional, organism-based; set-up: dose 10 mg/kg
Mus musculus [18] = assay: Antiatherosclerotic activity against high fat/high cholesterol fed LDLR-deficient mouse assessed as abca1 gene regulation at 10 mg/kg administered with diet for 7 days by Experion chip analysis; type: functional, organism-based; set-up: dose 10 mg/kg
Mus musculus [19] = assay: Antiatherosclerotic activity against high fat/high cholesterol fed LDLR-deficient mouse assessed as pltp gene regulation at 10 mg/kg administered with diet for 7 days by Experion chip analysis; type: functional, organism-based; set-up: dose 10 mg/kg
Mus musculus [20] = assay: Antiatherosclerotic activity against high fat/high cholesterol fed LDLR-deficient mouse macrophages assessed as induction of ABCA1 expression at 3 mg/kg administered with diet for 8 weeks; type: functional, organism-based; set-up: dose 3 mg/kg
Mus musculus [21] = assay: Antiatherosclerotic activity against high fat/high cholesterol fed LDLR-deficient mouse assessed as lipg gene regulation at 10 mg/kg administered with diet for 7 days by Experion chip analysis; type: functional, organism-based; set-up: dose 10 mg/kg
Mus musculus [22] = assay: Antiatherosclerotic activity against high fat/high cholesterol fed LDLR-deficient mouse assessed as abcg5 gene regulation at 0.6 mg/kg administered with diet for 7 days by Experion chip analysis; type: functional, organism-based; set-up: dose 0.6 mg/kg
Mus musculus [23] = assay: Antiatherosclerotic activity against high fat/high cholesterol fed LDLR-deficient mouse assessed as apoe gene regulation at 10 mg/kg administered with diet for 7 days by Experion chip analysis; type: functional, organism-based; set-up: dose 10 mg/kg
Mus musculus [24] = assay: Antiatherosclerotic activity against high fat/high cholesterol fed LDLR-deficient mouse assessed as scab1 gene regulation at 3 mg/kg administered with diet for 7 days by Experion chip analysis; type: functional, organism-based; set-up: dose 3 mg/kg
Mus musculus [25] = assay: Antiatherosclerotic activity against high fat/high cholesterol fed LDLR-deficient mouse assessed as adfp gene regulation at 0.6 mg/kg administered with diet for 7 days by Experion chip analysis; type: functional, organism-based; set-up: dose 0.6 mg/kg
Mus musculus [26] = assay: Antiatherosclerotic activity against high fat/high cholesterol fed LDLR-deficient mouse assessed as ldlr gene regulation at 3 mg/kg administered with diet for 7 days by Experion chip analysis; type: functional, organism-based; set-up: dose 3 mg/kg
Mus musculus [27] = assay: Antiatherosclerotic activity against high fat/high cholesterol fed LDLR-deficient mouse duodenum assessed as induction of SREBP-1c expression at 3 mg/kg administered with diet for 8 weeks; type: functional, organism-based; set-up: dose 3 mg/kg
Mus musculus [28] = assay: Antiatherosclerotic activity against high fat/high cholesterol fed LDLR-deficient mouse assessed as abcg5 gene regulation at 3 mg/kg administered with diet for 8 weeks by Experion chip analysis
Mus musculus [29] = assay: Antiatherosclerotic activity against high fat/high cholesterol fed LDLR-deficient mouse duodenum assessed as induction of ABCG8 expression at 0.6 mg/kg administered with diet for 8 weeks; type: functional, organism-based; set-up: dose 0.6 mg/kg
Mus musculus [30] = assay: Antiatherosclerotic activity against high fat/high cholesterol fed LDLR-deficient mouse assessed as Fasn gene regulation at 3 mg/kg administered with diet for 7 days by Experion chip analysis; type: functional, organism-based; set-up: dose 3 mg/kg
Mus musculus [31] = assay: Antiatherosclerotic activity against high fat/high cholesterol fed LDLR-deficient mouse assessed as apoc1 gene regulation at 3 mg/kg administered with diet for 7 days by Experion chip analysis; type: functional, organism-based; set-up: dose 3 mg/kg
Mus musculus [32] = assay: Antiatherosclerotic activity against high fat/high cholesterol fed LDLR-deficient mouse assessed as cyp7a1 gene regulation at 10 mg/kg administered with diet for 7 days by Experion chip analysis; type: functional, organism-based; set-up: dose 10 mg/kg
Mus musculus [33] = assay: Antiatherosclerotic activity against high fat/high cholesterol fed LDLR-deficient mouse macrophages assessed as induction of ABCG1 expression at 3 mg/kg administered with diet for 8 weeks; type: functional, organism-based; set-up: dose 3 mg/kg
Mus musculus [34] = assay: Antiatherosclerotic activity against high fat/high cholesterol fed LDLR-deficient mouse assessed as scd1 gene regulation at 3 mg/kg administered with diet for 7 days by Experion chip analysis; type: functional, organism-based; set-up: dose 3 mg/kg
Mus musculus [35] = assay: Antiatherosclerotic activity against high fat/high cholesterol fed LDLR-deficient mouse duodenum assessed as induction of ABCG8 expression at 3 mg/kg administered with diet for 8 weeks; type: functional, organism-based; set-up: dose 3 mg/kg
Mus musculus [36] = assay: Antiatherosclerotic activity against high fat/high cholesterol fed LDLR-deficient mouse assessed as abcg1 gene regulation at 3 mg/kg administered with diet for 8 weeks by Experion chip analysis
Mus musculus [37] = assay: Antiatherosclerotic activity against high fat/high cholesterol fed LDLR-deficient mouse assessed as apo5 gene regulation at 10 mg/kg administered with diet for 7 days by Experion chip analysis; type: functional, organism-based; set-up: dose 10 mg/kg
Mus musculus [38] = assay: Antiatherosclerotic activity against high fat/high cholesterol fed LDLR-deficient mouse assessed as abca1 gene regulation at 3 mg/kg administered with diet for 7 days by Experion chip analysis; type: functional, organism-based; set-up: dose 3 mg/kg

SMILES	Activity (Mus musculus [1])	Activity (Mus musculus [2])	Activity (Mus musculus [3])	Activity (Mus musculus [4])	Activity (Mus musculus [5])	Activity (Mus musculus [6])	Activity (Mus musculus [7])	Activity (Mus musculus [8])	Activity (Mus musculus [9])	Activity (Mus musculus [10])	Activity (Mus musculus [11])	Activity (Mus musculus [12])	Activity (Mus musculus [13])	Activity (Mus musculus [14])	Activity (Mus musculus [15])	Activity (Mus musculus [16])	Activity (Mus musculus [17])	Activity (Mus musculus [18])	Activity (Mus musculus [19])	Activity (Mus musculus [20])	other results
O=C(O)Cc1cccc(OCCCN(Cc2cccc(C(F)(F)F)c2Cl)CC(c2ccccc2)c2ccccc2)c1	Active	Active	Active	Active	Active	Active	Active	Active	Active	Active	Active	Active	Active	inactive	Active	Active	Active	Active	Active	Active	Activity (Mus musculus [21]): Active; Activity (Mus musculus [22]): Active; Activity (Mus musculus [23]): Active; Activity (Mus musculus [24]): Active; Activity (Mus musculus [25]): Active; Activity (Mus musculus [26]): Active; Activity (Mus musculus [27]): Active; Activity (Mus musculus [28]): Active; Activity (Mus musculus [29]): Active; Activity (Mus musculus [30]): Active; Activity (Mus musculus [31]): Active; Activity (Mus musculus [32]): Active; Activity (Mus musculus [33]): Active; Activity (Mus musculus [34]): Active; Activity (Mus musculus [35]): Active; Activity (Mus musculus [36]): Active; Activity (Mus musculus [37]): Active; Activity (Mus musculus [38]): Active
Cc1nc2c(C(F)(F)F)cccc2nc1-c1ccc(-c2cccc(S(C)(=O)=O)c2)cc1	Active	Active	Active	Active	Active	Active	Active	Active	Active	Active	inactive	Active	Active	inactive	Active	Active	Active	Active	Active	Active	Activity (Mus musculus [21]): Active; Activity (Mus musculus [22]): Active; Activity (Mus musculus [23]): Active; Activity (Mus musculus [24]): Active; Activity (Mus musculus [25]): Active; Activity (Mus musculus [26]): Active; Activity (Mus musculus [27]): Active; Activity (Mus musculus [28]): Active; Activity (Mus musculus [29]): Active; Activity (Mus musculus [30]): Active; Activity (Mus musculus [31]): Active; Activity (Mus musculus [32]): Active; Activity (Mus musculus [33]): Active; Activity (Mus musculus [34]): Active; Activity (Mus musculus [35]): Active; Activity (Mus musculus [36]): Active; Activity (Mus musculus [37]): Active; Activity (Mus musculus [38]): Active
